# Results reported in ChEMBL document CHEMBL5543092, “Design, synthesis, and biological characterization of proteolysis targeting chimera (PROTACs) for the ataxia telangiectasia and RAD3-related (ATR) kinase” (Eur J Med Chem, 2024).
# Active and inactive are the calls of the source. No cut-off for these calls is given here.
# Legend:
# MIA PaCa-2 [1] = assay: Effect on CRBN expression in patient derived siCRBN transfected human MIA PaCa-2 cells at 5 uM measured after 24 hrs by immunoblot analysis; assay type: functional, cell-based
# [2] = Chemical stability of the compound in at pH 7.4 measured at 6 hrs by HPLC based non-enzymatic stability assay; assay type: physicochemical; conditions: buffer, read-out: Stability
# [3] = Chemical stability of the compound in at pH 7.4 measured at 12 hrs by HPLC based non-enzymatic stability assay; assay type: physicochemical; conditions: buffer, read-out: Stability
# [4] = Chemical stability of the compound in at pH 7.4 measured at 24 hrs by HPLC based non-enzymatic stability assay; assay type: physicochemical; conditions: buffer, read-out: Stability
# [5] = Chemical stability of the compound in at pH 7.4 measured at 48 hrs by HPLC based non-enzymatic stability assay; assay type: physicochemical; conditions: buffer, read-out: Stability
# [6] = Chemical stability of the compound in at pH 7.4 measured at 72 hrs by HPLC based non-enzymatic stability assay; assay type: physicochemical; conditions: buffer, read-out: Stability
# [7] = molecular target: T1, Protein cereblon/Serine/threonine-protein kinase ATR (Homo sapiens) (UniProt Q13535+Q96SW2); assay: PROTAC activity at ATR/CRBN in patient derived human MIA PaCa-2 cells assessed as reduction in protein level at 5 uM measured after 24 hrs by immunoblot analysis relative to untreated control; assay type: cell-based; design: scale not given: the % may be the effect or the level left
# T1 sequence (Q13535 whole entry, looked up): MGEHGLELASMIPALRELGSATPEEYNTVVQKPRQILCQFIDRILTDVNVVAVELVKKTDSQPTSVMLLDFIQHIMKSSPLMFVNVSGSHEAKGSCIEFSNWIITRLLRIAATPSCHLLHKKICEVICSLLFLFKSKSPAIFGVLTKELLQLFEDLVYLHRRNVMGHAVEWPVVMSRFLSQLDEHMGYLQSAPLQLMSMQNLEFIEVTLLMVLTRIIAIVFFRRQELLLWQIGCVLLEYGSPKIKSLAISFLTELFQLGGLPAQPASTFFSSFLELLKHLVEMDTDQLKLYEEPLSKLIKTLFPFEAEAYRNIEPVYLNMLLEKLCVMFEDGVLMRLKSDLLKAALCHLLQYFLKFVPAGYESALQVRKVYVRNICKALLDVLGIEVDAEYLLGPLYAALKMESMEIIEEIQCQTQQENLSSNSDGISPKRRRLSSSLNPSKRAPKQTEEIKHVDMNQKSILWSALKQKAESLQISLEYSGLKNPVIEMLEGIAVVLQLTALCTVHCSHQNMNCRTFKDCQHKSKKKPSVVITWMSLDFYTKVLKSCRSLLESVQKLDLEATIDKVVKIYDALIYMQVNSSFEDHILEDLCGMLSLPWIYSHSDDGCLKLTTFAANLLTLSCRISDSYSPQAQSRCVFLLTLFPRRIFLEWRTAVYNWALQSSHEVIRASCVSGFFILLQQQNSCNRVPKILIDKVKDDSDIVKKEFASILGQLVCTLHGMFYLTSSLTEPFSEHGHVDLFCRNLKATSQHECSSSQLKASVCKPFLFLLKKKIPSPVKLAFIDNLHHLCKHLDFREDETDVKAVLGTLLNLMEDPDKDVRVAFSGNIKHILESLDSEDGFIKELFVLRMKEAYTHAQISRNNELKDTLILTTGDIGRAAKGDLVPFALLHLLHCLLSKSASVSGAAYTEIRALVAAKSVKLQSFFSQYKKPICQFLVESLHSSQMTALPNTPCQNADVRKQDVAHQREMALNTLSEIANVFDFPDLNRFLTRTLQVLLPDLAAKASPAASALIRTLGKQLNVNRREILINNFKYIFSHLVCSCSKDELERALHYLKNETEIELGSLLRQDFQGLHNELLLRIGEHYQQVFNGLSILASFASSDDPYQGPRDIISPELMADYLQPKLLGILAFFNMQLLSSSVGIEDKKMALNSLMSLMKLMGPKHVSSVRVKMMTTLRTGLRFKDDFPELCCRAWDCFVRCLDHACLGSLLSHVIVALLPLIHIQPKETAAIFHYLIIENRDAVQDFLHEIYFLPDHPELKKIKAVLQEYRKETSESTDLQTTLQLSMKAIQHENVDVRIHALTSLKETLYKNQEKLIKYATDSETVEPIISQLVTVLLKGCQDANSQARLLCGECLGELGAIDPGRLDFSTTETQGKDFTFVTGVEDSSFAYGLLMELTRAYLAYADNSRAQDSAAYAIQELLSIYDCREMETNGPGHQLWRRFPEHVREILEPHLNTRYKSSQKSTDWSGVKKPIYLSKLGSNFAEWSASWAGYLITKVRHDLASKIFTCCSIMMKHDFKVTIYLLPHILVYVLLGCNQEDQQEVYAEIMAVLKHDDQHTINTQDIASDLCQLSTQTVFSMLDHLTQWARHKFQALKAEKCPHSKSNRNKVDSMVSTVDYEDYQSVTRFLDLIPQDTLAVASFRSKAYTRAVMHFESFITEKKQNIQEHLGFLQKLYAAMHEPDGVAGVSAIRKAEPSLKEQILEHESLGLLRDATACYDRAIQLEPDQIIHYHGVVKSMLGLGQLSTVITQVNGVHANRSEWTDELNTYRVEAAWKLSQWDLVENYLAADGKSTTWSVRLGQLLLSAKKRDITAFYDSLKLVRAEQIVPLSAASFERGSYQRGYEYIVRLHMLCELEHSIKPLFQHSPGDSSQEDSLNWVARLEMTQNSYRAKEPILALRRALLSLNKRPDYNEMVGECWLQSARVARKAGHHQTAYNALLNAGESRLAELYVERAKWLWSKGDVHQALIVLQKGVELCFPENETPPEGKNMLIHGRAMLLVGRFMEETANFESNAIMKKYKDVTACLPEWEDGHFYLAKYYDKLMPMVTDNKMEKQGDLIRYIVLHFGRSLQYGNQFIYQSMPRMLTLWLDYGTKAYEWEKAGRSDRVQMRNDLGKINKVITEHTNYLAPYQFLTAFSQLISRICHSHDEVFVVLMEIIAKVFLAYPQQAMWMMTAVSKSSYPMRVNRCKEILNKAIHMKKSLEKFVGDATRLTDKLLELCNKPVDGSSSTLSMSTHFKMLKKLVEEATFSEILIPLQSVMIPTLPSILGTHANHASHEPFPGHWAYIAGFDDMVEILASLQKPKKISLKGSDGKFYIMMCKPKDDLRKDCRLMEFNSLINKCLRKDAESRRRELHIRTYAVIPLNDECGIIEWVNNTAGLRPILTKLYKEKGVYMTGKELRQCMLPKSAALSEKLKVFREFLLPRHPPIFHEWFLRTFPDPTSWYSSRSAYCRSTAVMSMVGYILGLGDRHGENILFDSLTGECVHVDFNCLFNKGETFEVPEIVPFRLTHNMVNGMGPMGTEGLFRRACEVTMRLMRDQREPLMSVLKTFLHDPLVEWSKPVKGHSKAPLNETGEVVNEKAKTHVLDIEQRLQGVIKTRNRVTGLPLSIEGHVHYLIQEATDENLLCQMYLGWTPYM
# T1 sequence (Q96SW2 whole entry, looked up): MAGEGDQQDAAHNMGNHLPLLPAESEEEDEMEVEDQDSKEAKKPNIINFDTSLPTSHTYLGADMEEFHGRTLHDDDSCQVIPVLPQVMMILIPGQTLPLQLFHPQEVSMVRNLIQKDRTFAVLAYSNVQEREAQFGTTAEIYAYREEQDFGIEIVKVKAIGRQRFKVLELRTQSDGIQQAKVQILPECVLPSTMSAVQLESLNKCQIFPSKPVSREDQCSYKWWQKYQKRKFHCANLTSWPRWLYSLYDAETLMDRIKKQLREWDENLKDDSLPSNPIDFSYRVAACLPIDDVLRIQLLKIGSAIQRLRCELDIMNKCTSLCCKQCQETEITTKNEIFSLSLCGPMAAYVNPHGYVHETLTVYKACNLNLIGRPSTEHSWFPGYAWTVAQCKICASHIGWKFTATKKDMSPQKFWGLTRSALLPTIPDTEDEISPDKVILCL
# HEK293 = assay: Cytotoxicity against human HEK293 cells assessed as cell viability at 50 uM incubated for 24 hrs by Alamar Blue reagent based assay relative to control; assay type: functional; conditions: read-out: Activity
# MIA PaCa-2 [8] = assay: Induction of […] degradation in patient derived human MIA PaCa-2 cells assessed as reduction in protein level at 2 uM measured after 24 hrs by immunoblot analysis; assay type: functional, cell-based
# [9] = molecular target: T1, Protein cereblon/Serine/threonine-protein kinase ATR (Homo sapiens); assay: PROTAC activity at ATR/CRBN in patient derived human MIA PaCa-2 cells assessed as reduction in protein level at 0.1 to 5 uM measured after 24 hrs by immunoblot analysis relative to untreated control; assay type: cell-based; conditions: dose 0.1-5 µM
# [10] = Plasma protein binding in human plasma; assay type: ADME, cell-free; conditions: read-out: PPB (converted)
# [11] = Plasma stability in human plasma assessed as compound remaining at 20 uM measured after 24 hrs by HPLC analysis; assay type: ADME, cell-free; conditions: read-out: Stability
# ATR/ATRIP = ATR/ATRIP (Homo sapiens, UniProt Q13535); assay: Inhibition of human ATR/ATRIP complex using GST-cMyc-p53 substrate measured after 30 mins by HTRF based non-radioactive in vitro assay; assay type: protein-complex assay
# Sequence of ATR/ATRIP (Q13535 whole entry): as the sequence (Q13535 whole entry, looked up) above
# Sequence of ATR/ATRIP (Q8WXE1 whole entry, further chain): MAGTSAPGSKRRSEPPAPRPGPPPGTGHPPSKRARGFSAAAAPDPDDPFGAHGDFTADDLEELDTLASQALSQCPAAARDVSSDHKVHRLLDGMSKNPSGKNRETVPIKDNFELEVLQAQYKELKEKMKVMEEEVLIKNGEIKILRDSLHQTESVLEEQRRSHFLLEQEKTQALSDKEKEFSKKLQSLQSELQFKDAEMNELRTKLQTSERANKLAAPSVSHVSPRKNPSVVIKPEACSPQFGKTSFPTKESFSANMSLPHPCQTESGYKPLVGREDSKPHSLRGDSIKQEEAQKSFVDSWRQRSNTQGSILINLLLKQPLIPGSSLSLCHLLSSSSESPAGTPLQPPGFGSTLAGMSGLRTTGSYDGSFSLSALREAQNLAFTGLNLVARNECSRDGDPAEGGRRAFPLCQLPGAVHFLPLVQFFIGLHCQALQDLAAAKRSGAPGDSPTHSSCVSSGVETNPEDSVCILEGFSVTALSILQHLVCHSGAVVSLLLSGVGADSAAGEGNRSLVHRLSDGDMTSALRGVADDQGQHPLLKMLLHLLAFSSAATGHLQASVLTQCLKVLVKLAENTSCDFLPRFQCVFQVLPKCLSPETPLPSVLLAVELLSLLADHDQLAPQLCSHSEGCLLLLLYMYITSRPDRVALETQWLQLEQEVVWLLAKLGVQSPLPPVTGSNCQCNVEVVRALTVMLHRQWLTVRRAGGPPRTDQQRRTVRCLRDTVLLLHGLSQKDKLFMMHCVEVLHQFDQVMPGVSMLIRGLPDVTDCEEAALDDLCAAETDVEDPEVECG
# [12] = molecular target: T2, von Hippel-Lindau disease tumor suppressor/Serine/threonine-protein kinase ATR (Homo sapiens) (UniProt Q13535+P40337); assay: PROTAC activity at ATR/VHL in patient derived human MIA PaCa-2 cells assessed as protein degradation at 2 uM measured after 24 hrs by immunoblot analysis relative to untreated control; assay type: cell-based
# T2 sequence (P40337 whole entry, looked up): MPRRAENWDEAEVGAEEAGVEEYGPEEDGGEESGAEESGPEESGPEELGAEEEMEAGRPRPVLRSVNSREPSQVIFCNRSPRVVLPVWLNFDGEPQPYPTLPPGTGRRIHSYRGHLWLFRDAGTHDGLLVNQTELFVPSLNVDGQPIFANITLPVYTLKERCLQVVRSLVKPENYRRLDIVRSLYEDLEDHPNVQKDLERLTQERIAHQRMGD
# T2 sequence (Q13535 whole entry, looked up): as the sequence (Q13535 whole entry, looked up) above
# [13] = molecular target: T2, von Hippel-Lindau disease tumor suppressor/Serine/threonine-protein kinase ATR (Homo sapiens); assay: PROTAC activity at ATR/VHL in patient derived human MIA PaCa-2 cells assessed as protein degradation at 5 uM measured after 24 hrs by immunoblot analysis relative to untreated control; assay type: cell-based
# [14] = molecular target: T1, Protein cereblon/Serine/threonine-protein kinase ATR (Homo sapiens); assay: PROTAC activity at ATR/CRBN in patient derived human MIA PaCa-2 cells assessed as reduction in protein level at 1 uM measured after 24 hrs by immunoblot analysis relative to untreated control; assay type: cell-based
Structure (SMILES),Activity (MIA PaCa-2 [1]),remaining at 6 h [2] [%],remaining at 12 h [3] [%],remaining at 24 h [4] [%],remaining at 48 h [5] [%],remaining at 72 h [6] [%],Activity [7] [%],viability at 50 µM (HEK293) [%],Activity (MIA PaCa-2 [8]),Activity [9],fraction unbound [10],"remaining at 24 h, 20 µM [11] [%]",IC50 (ATR/ATRIP) [µM],Activity [12],Activity [13],Activity [14]
CCc1c2c(nc3ccc(OC(=O)N4CCC(N5CCCCC5)CC4)cc13)-c1cc3c(c(=O)n1C2)COC(=O)[C@]3(O)CC,inactive,,,,,,,,,,,,,,,
Nc1ncc(-c2ccc(S(=O)(=O)NCCCCCC(=O)N3CCN(c4ccc5c(c4)C(=O)N(C4CCC(=O)NC4=O)C5=O)CC3)cc2)nc1C(=O)Nc1ccccc1 (stereo not drawn),,101,101,96,87,72,40,96,,,,,,,,
CS(=O)(=O)c1ccc(-c2cnc(N)c(C(=O)Nc3ccccc3)n2)cc1,,,,,,,,,inactive,,,,,,,
Nc1ncc(-c2ccc(S(=O)(=O)NCCCCCCC(=O)NCCOc3ccc(C4CCC(=O)NC4=O)cc3)cc2)nc1C(=O)Nc1ccccc1 (stereo not drawn),,101,103,102,102,101,,95.7,,inactive,,,,,,
CNCc1ccc(-c2nnc(-c3nc(-c4ccc(S(=O)(=O)NCCCCCC(=O)N5CCN(c6ccc7c(c6)C(=O)N(C6CCC(=O)NC6=O)C7=O)CC5)cc4)cnc3N)o2)cc1 (stereo not drawn),,98,95,92,81,71,,105,,inactive,,,,,,
CNS(=O)(=O)c1ccc(-c2cnc(N)c(C(=O)Nc3ccccc3)n2)cc1,,99,100,100,102,104,,83.7,,,0.225,> 92,1,,,
Cc1ncsc1-c1ccc(CNC(=O)[C@@H]2C[C@@H](O)CN2C(=O)[C@@H](NC(=O)CCCCCNS(=O)(=O)c2ccc(-c3cnc(N)c(C(=O)Nc4ccccc4)n3)cc2)C(C)(C)C)cc1,,99,99,100,100,100,,60.3,,,,,,inactive,inactive,
Cc1ncsc1-c1ccc(CNC(=O)[C@@H]2C[C@@H](O)CN2C(=O)[C@@H](NC(=O)CCOCCOCCOCCNS(=O)(=O)c2ccc(-c3cnc(N)c(C(=O)Nc4ccccc4)n3)cc2)C(C)(C)C)cc1,,100,100,102,103,105,,45.7,,,,,,inactive,inactive,
Cc1ncsc1-c1ccc(CNC(=O)[C@@H]2C[C@@H](O)CN2C(=O)[C@@H](NC(=O)CCOCCOCCNS(=O)(=O)c2ccc(-c3cnc(N)c(C(=O)Nc4ccccc4)n3)cc2)C(C)(C)C)cc1,,100,100,101,101,102,,44.5,,,,,,inactive,inactive,
Nc1ncc(-c2ccc(S(=O)(=O)NCCCCCCC(=O)NCCCC#Cc3cccc4c3CN(C3CCC(=O)NC3=O)C4=O)cc2)nc1C(=O)Nc1ccccc1 (stereo not drawn),,102,103,105,105,109,,109,,,,,,,,Active
